From patent publication EP0951284B1, “[…] DERIVATIVES” (priority 1996, dated 1998)
Where a name gives a salt, the structure may show the parent alone. Read-outs that look alike come from different tables or passages of the source.

How the values were obtained:
[1] = target: T1, Human erythrocyte acetylcholinesterase (Homo sapiens, UniProt P22303); test: In vitro measurement of acetylcholinesterase (AChE) inhibition (Ellman method); assay type: biochemical; conditions: at time of peak activity, incubation 15 to 60 minutes at 37°C
T1 construct: Human erythrocyte acetylcholinesterase (type XIII, Sigma Israel); purchased Sigma Israel type XIII; host or cells: human erythrocytes
Protocol: Human erythrocyte acetylcholinesterase (type XIII, Sigma Israel), was prepared in a stock solution of 1U/ml, containing Triton (1%) and bovine serum albumin (0.05%) in phosphate buffer (pH 8). The enzyme (0.05U) was incubated with 3-5 different concentrations of test compound (in triplicate) for periods of from 15 to 60 minutes at 37°C. […] The percentage inhibition of AChE by each concentration of drug is calculated by comparison with that of enzyme in the absence of drug.

[2] = target: T2, MAO-A (Rattus norvegicus, UniProt P21396); test: Inhibition of MAO activity in vitro, rat brain homogenate, 5-HT substrate
T2 sequence (P21396 1-526): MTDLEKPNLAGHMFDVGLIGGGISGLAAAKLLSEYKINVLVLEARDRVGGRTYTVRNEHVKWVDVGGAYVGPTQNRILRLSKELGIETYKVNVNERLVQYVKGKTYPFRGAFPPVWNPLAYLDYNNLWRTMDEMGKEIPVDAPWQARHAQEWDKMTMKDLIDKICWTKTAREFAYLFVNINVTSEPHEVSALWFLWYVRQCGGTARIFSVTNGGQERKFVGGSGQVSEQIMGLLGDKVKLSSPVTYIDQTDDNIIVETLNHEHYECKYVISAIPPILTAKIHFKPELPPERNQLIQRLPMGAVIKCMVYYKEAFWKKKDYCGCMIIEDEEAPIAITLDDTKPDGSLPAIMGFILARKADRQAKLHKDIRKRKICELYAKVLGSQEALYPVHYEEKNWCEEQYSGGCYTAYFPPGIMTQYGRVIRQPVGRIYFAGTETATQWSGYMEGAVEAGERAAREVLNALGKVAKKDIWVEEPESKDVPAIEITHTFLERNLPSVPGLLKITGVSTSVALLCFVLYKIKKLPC
Protocol: The MAO enzyme source was a homogenate of rat brain in 0.3M sucrose, which was centrifuged at 600G for 15 minutes. The supernatant was diluted appropriately in 0.05M phosphate buffer, and pre-incubated with serial dilutions of test compounds for 20 minutes at 37°C. ^14C-Labeled substrates (2-phenylethylamine, hereinafter PEA; 5-hydroxytryptamine, hereinafter 5-HT) were then added, and the incubation continued for a further 20 minutes (PEA), or 30-45 minutes (5-HT). Substrate concentrations used were 50µM (PEA) and 1mM (5-HT). In the case of PEA, enzyme concentration was chosen so that not more than 10% of the substrate was metabolized during the course of the reaction. The deaminated products were extracted into toluene-ethyl acetate (1:1, v/v) containing 0.6% (w/v) 2,5-diphenyloxazole prior to determination by liquid scintillation counting. Radioactivity in the eluate indicates the production of neutral and acidic metabolites formed as a result of MAO activity. Activity of MAO in the sample was expressed as a percentage of control activity in the absence of inhibitors after subtraction of appropriate blank values The activity determined using PEA as substrate is referred to as MAO-B, and that determined using 5-HT as MAO-A.

[3] = tested on: mice; test: Survival time of mice in hypobaric hypoxic episode; assay type: in vivo
From the text: The model is based on that described in Nakanishi, M. et al. Life Sci. (1973) 13: 467; Oshiro, et al., J. Med. Chem. (1991) 34: 2004-2013; and US Patent 4,788,130.
A 12 liter desiccator (desiccator A) and a 2.5 liter desiccator (desiccator B) were separately connected to a vacuum pump. Desiccator B was disconnected and allowed to equilibrate with room air whilst desiccator A was evacuated to a pressure of 100mmHg. Four male ICR albino mice (22-28g) were placed in desiccator B. Desiccator B was then closed to room air and connected to desiccator A. The pressure inside desiccator B was monitored using a mercury manometer and at the point the pressure in desiccator B reached 200mmHg (usually within 14 seconds), the two desiccators were disconnected from the vacuum pump and the pump switched off. The survival time from the moment of induction of hypoxia to the time of cessation of respiration was recorded. for each mouse for a maximum of 15 minutes after which time room air was reintroduced to desiccator B. Survivors were monitored for signs of lethargy or vitality.
Effect of drug treatment was assessed as the percent of the survival time of the drug treated group with respect to the saline injected or vehicle injected control group. Control groups were run twice, before and after each experimental group and consisted of 8 mice in groups of 4 mice to ensure a constant residual volume of oxygen in all tests. The effect of each dose of test drug was determined in duplicate i.e. two groups of 4 mice.
Positive reference drugs were sodium pentobarbital at a dose of 40 mg/kg, and diazepam 10 mg/kg given 0.5h prior to hypoxia, physostigmine 0.2 and 0.4 mg/kg and neostigmine 0.2 mg/kg given sc 30 min before hypoxia. Methyl atropine 1 mg/kg was given sc. 10 min. before physostigmine.
The volume of injection was 0.2-0.3 mL per mouse (10 mL/kg). The initial dose was about one third of the reported LD50 for acetylcholine esterase inhibition. If no protection could be obtained, the dose was further increased to the nearest non-toxic dose. In case of protection, the dose was further reduced in an attempt to locate the "protective" dose range.

[4] = tested on: MAO-B; test: Inhibition of MAO activity ex vivo (brain tissue), PEA substrate; assay type: in vivo, mice; conditions: mouse brain tissue
Protocol: (§1) Male Sabra mice, weighing 45-50g were injected with test compound solutions (prepared in 0.9% saline). Each dose was administered to two or three mice. The mice were sacrificed two hours after drug administration or at a time corresponding to the peak AChE inhibition time (see Table 6). The brain and liver were rapidly dissected and stored in appropriate vials on ice. The tissues were weighed, diluted to 1/20 in sucrose 0.3M and stored at -20°C before performance of the MAO assay described above. The results given in Table 6 relate to measurements made on brain tissue only.

[5] = Acute toxicity in mice (sub-cutaneous, lethality within 6 hours); conditions: mouse, in vivo, sc; for selectivity ratio: LD50 divided by ED50 (acetylcholine esterase ex vivo), read-out: Therapeutic Ratio (LD/AC); for LD50 at 6 h: sub-cutaneous, mice, within 6 hours
Protocol: Drugs were administered sub-cutaneously in at least 3 doses, to a minimum of 10 mice per dose. […] Therapeutic Ratio was calculated as LD50 divided by ED50(acetylcholine esterase ex vivo).

[6] = target: T3, whole brain AChE (Mus musculus, UniProt P21836); test: Ex vivo measurement of brain AChE inhibition after sub-cutaneous administration; assay type: in vivo, mice; conditions: for ED50: sc, sub-cutaneous, mouse whole brain, at peak of activity, read-out: AChE Inhibition Ex vivo ED50 (AC)
T3 construct: the brains rapidly removed (minus cerebellum), weighed and homogenized in 0.1M phosphate buffer pH 8.0; from tissue; host or cells: mouse brain (minus cerebellum) homogenate supernatant
T3 sequence (P21836 32-614): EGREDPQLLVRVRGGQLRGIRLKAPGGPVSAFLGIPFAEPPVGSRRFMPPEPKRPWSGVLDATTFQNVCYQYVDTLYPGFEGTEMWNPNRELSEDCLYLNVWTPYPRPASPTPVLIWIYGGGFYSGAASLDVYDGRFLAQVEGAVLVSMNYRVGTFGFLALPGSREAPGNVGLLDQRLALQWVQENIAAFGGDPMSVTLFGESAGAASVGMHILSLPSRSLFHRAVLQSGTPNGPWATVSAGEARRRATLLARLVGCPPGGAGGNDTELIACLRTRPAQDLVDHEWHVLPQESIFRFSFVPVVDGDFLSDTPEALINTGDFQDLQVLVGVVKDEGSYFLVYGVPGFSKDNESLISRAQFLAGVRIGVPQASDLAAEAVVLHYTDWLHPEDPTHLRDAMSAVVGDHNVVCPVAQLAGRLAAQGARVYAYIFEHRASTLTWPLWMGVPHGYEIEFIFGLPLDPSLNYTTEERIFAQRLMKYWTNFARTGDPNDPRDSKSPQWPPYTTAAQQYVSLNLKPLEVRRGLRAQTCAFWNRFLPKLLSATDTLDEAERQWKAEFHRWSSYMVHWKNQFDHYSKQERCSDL
Protocol: Test drugs or saline were administered sub-cutaneously to male mice (Sabra strain, 28-35g). At least 4-5 mice were used per dose and a minimum of 3 doses per drug were tested. The mice were sacrificed 15, 30, 60, 70, 90, 120 or 180 minutes after drug administration, the brains rapidly removed (minus cerebellum), weighed and homogenized in 0.1M phosphate buffer pH 8.0, containing Triton (1mg/100g tissue) and centrifuged to remove cell debris. Aliquots (25 µl) of the supernatant were then incubated with acetylthiocholine and DTNB. AChE activity measured as described above. The % inhibition of whole brain AChE by each dose of drug was calculated by comparison with enzyme activity from 3 saline treated control mice run at the same time.

[7] = tested on: MAO-A; test: Inhibition of MAO activity ex vivo (brain tissue), 5-HT substrate; assay type: in vivo, mice; conditions: mouse brain tissue
Protocol: as §1

T1 sequence (P22303 32-617 isoform P22303-2 limits assumed): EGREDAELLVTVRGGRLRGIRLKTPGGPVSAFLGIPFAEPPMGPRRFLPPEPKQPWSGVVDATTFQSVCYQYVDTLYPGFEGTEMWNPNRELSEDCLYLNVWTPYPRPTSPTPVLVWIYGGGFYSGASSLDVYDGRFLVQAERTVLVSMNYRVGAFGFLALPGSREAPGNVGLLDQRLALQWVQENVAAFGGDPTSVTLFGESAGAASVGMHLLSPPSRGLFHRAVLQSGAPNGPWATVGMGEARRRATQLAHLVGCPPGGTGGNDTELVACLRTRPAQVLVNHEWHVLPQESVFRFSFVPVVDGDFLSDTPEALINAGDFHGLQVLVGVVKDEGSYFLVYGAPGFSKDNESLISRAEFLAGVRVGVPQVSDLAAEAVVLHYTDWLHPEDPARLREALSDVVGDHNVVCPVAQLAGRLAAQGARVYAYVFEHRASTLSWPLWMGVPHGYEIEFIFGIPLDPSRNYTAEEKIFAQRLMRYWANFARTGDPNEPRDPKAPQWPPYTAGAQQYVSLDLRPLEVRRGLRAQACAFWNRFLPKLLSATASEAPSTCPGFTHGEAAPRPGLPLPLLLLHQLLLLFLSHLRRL

Compound	IC50 [1]	IC50 [2]	MAO-B Inhibition Ex vivo ED50 [4]	LD50 at 6 h [5]	ED50 [6]	MAO-A Inhibition Ex vivo ED50 [7]	further results
CN(C)C(=O)Oc1cccc(CCN)c1 [Compound 1]	0.31 µM	100 µM					
CN1C(=O)CN=C(c2ccccc2)c2cc(Cl)ccc21 [Diazepam, diazepam, reference compound]							Protection (% of control) ([3]; 10 mg/kg, 30 min before hypoxia): 316±78 % of control
C#CCN(C)C(C)Cc1cccc(OC(=O)N(C)C2CCCCC2)c1 (racemic) [Compound 28, (rac)-3-(N-methyl,N-cyclohexyl-carbamyloxy)-α-methyl-N'-methyl, N'-propargyl phenethylamine HCl]	11.5 µM	1.7 µM	1.75 µmol/kg	2000 µmol/kg	21 µmol/kg	109 µmol/kg	selectivity ratio [5]: > 47; Time to peak activity t ([6]; AChE inhibition): 60 min
C#CC(C)NCCc1cccc(OC(=O)N(C)CC)c1 (centres unmarked) [Compound 30]	14 µM		>>270 µmoles/kg		45 µmol/kg	>>270 µmoles/kg	
C#CCN(C)C(C)Cc1cccc(OC(=O)N(C)CCCCCC)c1 (racemic) [Compound 27, (rac)-3-(N-methyl,N-hexyl-carbamyloxy)-α-methyl-N'-methyl, N'-propargyl phenethylamine mesylate]	3.1 µM	20 µM	3.4 µmol/kg	> 1000 µmol/kg	> 50 µmol/kg	>430 µmol/kg	
CCN(C)C(=O)Oc1cccc(CCN)c1 [Compound 4]	48.4 µM	200 µM					
C#CCN(C)C(C)Cc1cccc(OC(=O)N(C)CCC)c1 (racemic) [Compound 35]	50 µM				> 200 µmol/kg		
C#CCNC(C)Cc1cccc(OC(=O)N(C)CCC)c1 (racemic) [Compound 19, (rac)-3-(N-methyl,N-propyl-carbamyloxy)-α-methyl-N'-propargyl phenethylamine HCl]	20 µM	14.6 µM	1.5 µmol/kg	1300 µmol/kg	170 µmol/kg	>70 µmol/kg	selectivity ratio [5]: 7.6; Protection (% of control) ([3]; 25 mg/kg sc, 60 min before hypoxia): 169±50 % of control; Protection (% of control) ([3]; 50 mg/kg sc, 60 min before hypoxia): 309±253 % of control; Protection (% of control) ([3]; 75 mg/kg sc, 60 min before hypoxia): 773±228 % of control; Time to peak activity t ([6]; AChE inhibition): 30 to 60 min
C#CC(C)NCCc1cccc(OC(=O)N(C)C)c1 (centres unmarked) [Compound 29]	0.15 µM		>>12.5 µmoles/kg		2.5 µmol/kg	>>12.5 µmoles/kg	
CNCCc1cccc(OC(=O)N(C)C)c1 [Compound 3]	0.31 µM	50 µM		57.7 µmol/kg	39.2 µmol/kg		selectivity ratio [5]: 1.5; Time to peak activity t ([6]; AChE inhibition): 10 min; Time to return to 50% of peak t ([6]; AChE inhibition): 30 min
CCCC(C)C1(CC)C(=O)NC(=O)NC1=O (centres unmarked) [Nembutal, sodium pentobarbital, reference compound]							Protection (% of control) ([3]; 40 mg/kg, 30 min before hypoxia): 253±200 % of control
C#CCNC(C)Cc1cccc(OC(=O)N(C)C2CCCCC2)c1 (centres unmarked) [Compound 36]	3.4 µM				> 50 µmol/kg		
CCN(C)C(=O)Oc1cccc(CCNC)c1 [Compound 5]	20.8 µM	25 µM	>>160 µmoles/kg			>>160 µmoles/kg	
CN(C)CCc1cccc(OC(=O)N(C)C)c1 [Compound 10]	0.2 µM			16 µmol/kg	2 µmol/kg		selectivity ratio [5]: 8; IC50 ([2]; read-out: MAO-A Inhibition In vitro IC50, rat brain homogenate, 5-HT 1mM): 51 µM; Time to peak activity t ([6]; AChE inhibition): 15 to 30 min
C#CCN(C)[C@@H](C)Cc1cccc(OC(=O)N(C)CCCCCC)c1 [Compound 38, (S)-3-(N-methyl, N-hexyl-carbamyloxy)-α-methyl-N'-methyl,N'-propargyl phenethylamine ethanesulfonate]	3.1 µM				> 50 µmol/kg		
